The record followed here is article PMC5829162, “Rational Design, Synthesis and Biological Evaluation of Pyrimidine-4,6-diamine derivatives as Type-II inhibitors of FLT3 Selective Against c-KIT” (Scientific Reports, 2018).

SMILES strings stand for the structures.

The IC50 is the concentration that inhibits the measured activity by half. The term melting point denotes the temperature, or range, at which the solid turns liquid. What is called GI50 is the concentration that inhibits growth by half. Higher therefore signals less potent growth inhibition. By inhibition is commonly meant the percentage by which the read-out fell short of the control. Read a high inhibition as strong suppression.

One series deals with RET (Homo sapiens, UniProt P07949). Briefly: Biochemical kinase selectivity assay, RET. As to conditions: in vitro kinase assay; read-out: RET IC50 (nM) ± SD.
The next series relates to MV4–11 AML cells. Kind of series: Cell proliferation (CellTiter-Glo, 48 h), MV4-11. Format: cell-based. To be noted: Homo sapiens; MV4–11, 48 hours. The source says: Stable BaF3 populations expressing activated FLT3 were generated by retroviral spinfection with the appropriate mutated plasmid followed by selection and growth factor withdrawal as previously described. The BaF3 cell line was originally obtained from the laboratory of Charles Sawyers and has not been authenticated. MV411 and Molm14 cells were obtained from the laboratory of Scott Kogan and authenticated by Promega STR analysis in June 2013. All cell lines were mycoplasma-free. Cells were incubated with compounds for 48 hours and proliferation was assessed using CellTiter-Glo (Promega; Madison, WI) according to the manufacturer’s recommendation on a SpectraMax M3 microplate reader using SpectraMax Software (Molecular Devices; Sunnyvale, CA). All cell viability data shown is reflective of experiments performed a minimum of three times. […]
S13. Cell Cultures: Stable BaF3 populations expressing activated FLT3 were generated by retroviral spinfection with the appropriate mutated plasmid followed by selection and growth factor withdrawal as previously described .4 The BaF3 cell line was originally obtained from the laboratory of Charles Sawyers and has not been authenticated. MV411 and Molm14 cells were obtained from the laboratory of Scott Kogan and authenticated by Promega STR analysis in June
2013. All cell lines were mycoplasma -free. Cells were incubated with compounds for 48 hours and proliferation was assessed using CellTiter -Glo (Promega; Madison, WI) according to the manufacturer’s recommendation on a SpectraMax M3 microplate reader using SpectraMax Software (Molecular Devices; Sunnyvale, CA). All cell viability data shown is reflective of experiments performed a minimum of three times.
For orientation: ATP-based viability assays read luminescence as a measure of living cells.

The target in the next series is T1, RETV804L (Homo sapiens, UniProt P07949, V804L).
T1 sequence (P07949 658-1114 V804L limits assumed): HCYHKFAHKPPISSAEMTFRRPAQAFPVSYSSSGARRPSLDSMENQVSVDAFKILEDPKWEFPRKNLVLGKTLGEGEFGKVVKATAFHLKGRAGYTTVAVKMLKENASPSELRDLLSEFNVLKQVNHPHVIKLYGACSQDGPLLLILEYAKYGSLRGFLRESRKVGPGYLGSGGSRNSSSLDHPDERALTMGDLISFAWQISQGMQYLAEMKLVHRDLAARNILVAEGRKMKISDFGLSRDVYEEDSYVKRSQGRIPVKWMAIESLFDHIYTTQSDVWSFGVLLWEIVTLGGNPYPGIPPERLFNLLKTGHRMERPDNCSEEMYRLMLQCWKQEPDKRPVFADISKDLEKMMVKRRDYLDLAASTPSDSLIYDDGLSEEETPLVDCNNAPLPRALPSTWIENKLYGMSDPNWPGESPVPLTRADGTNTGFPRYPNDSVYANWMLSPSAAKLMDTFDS
Briefly: Biochemical kinase selectivity assay, RET V804L.

Sequence of RET (P07949 29-1114, species assumed): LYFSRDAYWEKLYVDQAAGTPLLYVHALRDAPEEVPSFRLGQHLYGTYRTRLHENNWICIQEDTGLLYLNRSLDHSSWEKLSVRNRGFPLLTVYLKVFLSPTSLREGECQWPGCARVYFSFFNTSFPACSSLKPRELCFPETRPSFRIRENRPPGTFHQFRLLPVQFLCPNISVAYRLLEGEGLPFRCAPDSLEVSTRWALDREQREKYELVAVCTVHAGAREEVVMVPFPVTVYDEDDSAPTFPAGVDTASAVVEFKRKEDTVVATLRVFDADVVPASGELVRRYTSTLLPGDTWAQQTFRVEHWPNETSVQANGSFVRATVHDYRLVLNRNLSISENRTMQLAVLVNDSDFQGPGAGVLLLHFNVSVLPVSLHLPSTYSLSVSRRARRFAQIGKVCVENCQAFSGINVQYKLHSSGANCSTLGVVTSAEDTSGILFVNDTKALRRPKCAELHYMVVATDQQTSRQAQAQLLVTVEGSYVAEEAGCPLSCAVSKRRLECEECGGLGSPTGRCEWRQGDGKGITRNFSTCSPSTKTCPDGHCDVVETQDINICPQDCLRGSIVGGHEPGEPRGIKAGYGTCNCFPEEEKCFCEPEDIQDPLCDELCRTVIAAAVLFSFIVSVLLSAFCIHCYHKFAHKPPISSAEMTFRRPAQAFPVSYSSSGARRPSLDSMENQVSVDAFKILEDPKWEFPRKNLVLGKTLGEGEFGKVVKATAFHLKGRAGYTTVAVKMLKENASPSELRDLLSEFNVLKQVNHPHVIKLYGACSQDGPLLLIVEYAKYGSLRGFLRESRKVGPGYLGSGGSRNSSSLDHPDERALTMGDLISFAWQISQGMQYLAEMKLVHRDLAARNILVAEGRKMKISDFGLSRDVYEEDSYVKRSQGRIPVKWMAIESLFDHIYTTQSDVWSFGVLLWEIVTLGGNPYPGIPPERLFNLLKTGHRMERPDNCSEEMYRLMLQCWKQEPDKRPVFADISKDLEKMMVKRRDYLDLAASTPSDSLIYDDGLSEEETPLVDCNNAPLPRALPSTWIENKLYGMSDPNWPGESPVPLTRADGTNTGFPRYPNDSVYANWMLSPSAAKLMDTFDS

In turn, `Cn1nc(C(C)(C)C)cc1NC(=O)Cc1ccc(Nc2cc(Nc3ccc(S(C)(=O)=O)cc3)ncn2)cc1` [13a, 2-(4-(6-(4-(Methylsulfonyl)phenylamino)pyrimidin-4-ylamino)phenyl)-N-(3-tert-butyl-1-methyl-1H-pyrazol-5-yl)acetamide] had a melting point of 134 to 136 °C. In addition, the IC50 at RET was 4710 ± 342 nM. Also, the 50% growth inhibitory concentration (GI50) in the series with MV4–11 AML cells turned out to be 9.9 nM. The same compound had an inhibition at 20 µM against RETV804L of 62.3%.

Turning to `CC(C)(C)c1cc(NC(=O)Cc2ccc(Nc3cc(Nc4ccc(S(C)(=O)=O)cc4)ncn3)cc2)no1` [13k, 2-(4-(6-(4-(Methylsulfonyl)phenylamino)pyrimidin-4-ylamino)phenyl)-N-(5-tert-butylisoxazol-3-yl)acetamide], the melting point was in the range of 168 to 170 °C. Also, the 50% inhibitory concentration (IC50) at RET was 1660 nM. In the series with MV4–11 AML cells, this compound came in with a GI50 of 7.2 nM. The same compound registered an inhibition at 20 µM against RETV804L of 40.8%.
